Measured values published in PubChem BioAssay AID248 (DTP/NCI, 2004).
Toxic doses and inconclusive results are not listed. Rule as the data show it: active = T/C of 150% or more; inactive = T/C below 125%.

System: L1210 leukemia ip in BDF1 mice, survival T/C
Assay: NCI In Vivo Anticancer Drug Screen. Data for tumor model L1210 Leukemia (intraperitoneal) in B6D2F1 (BDF1) mice
Conditions: endpoint: mean survival time, higher = longer survival
Procedure, shortened: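 In this screen, tumor-bearing mice given compound are compared to those given vehicle, and their survival values are reported as a treated-to-control quotient.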

[1] = dose: 75.0 mg/kg/injection, schedule: Q01DX009 (ip), vehicle: saline
[2] = dose: 100.0 mg/kg/injection, schedule: Q01DX001 (ip), vehicle: saline
[3] = dose: 100.0 mg/kg/injection, schedule: Q04DX003 (ip), vehicle: saline
[4] = dose: 100.0 mg/kg/injection, schedule: Q04DX003 (ip), vehicle: water
[5] = dose: 200.0 mg/kg/injection, schedule: Q04DX003 (ip), vehicle: water
[6] = dose: 75.0 mg/kg/injection, schedule: Q01DX001 (ip), vehicle: saline
[7] = dose: 25.0 mg/kg/injection, schedule: Q04DX003 (ip), vehicle: saline
[8] = dose: 50.0 mg/kg/injection, schedule: Q04DX003 (ip), vehicle: saline
[9] = dose: 100.0 mg/kg/injection, schedule: Q01DX001 (ip), vehicle: carboxymethylcellulose (CMC)
[10] = dose: 100.0 mg/kg/injection, schedule: Q04DX003 (ip), vehicle: Klucel (hydroxypropylcellulose) (HPC)
[11] = dose: 200.0 mg/kg/injection, schedule: Q01DX001 (ip), vehicle: carboxymethylcellulose (CMC)
[12] = dose: 200.0 mg/kg/injection, schedule: Q04DX003 (ip), vehicle: Klucel (hydroxypropylcellulose) (HPC)
[13] = dose: 400.0 mg/kg/injection, schedule: Q01DX001 (ip), vehicle: carboxymethylcellulose (CMC)

Measured: T/C

C=C(Br)CN1CCCC1=O
inactive: [1] 98 % of control | dose: 150.0 mg/kg/injection, schedule: Q01DX009 (ip), vehicle: saline 106 % of control | dose: 300.0 mg/kg/injection, schedule: Q01DX009 (ip), vehicle: saline 114 % of control

Clc1ccc(CN2CCCN(C3CCCCC3)C2C2CCC=CO2)cc1 (stereo not given)
inactive: [2] 96 % of control

CCN(CC)C(=O)Cn1ccc(N)nc1=O
inactive: dose: 100.0 mg/kg/injection, schedule: Q01DX009 (ip), vehicle: saline 115 % of control | [3] 100 % of control | dose: 200.0 mg/kg/injection, schedule: Q01DX009 (ip), vehicle: saline 98 % of control | dose: 200.0 mg/kg/injection, schedule: Q04DX003 (ip), vehicle: saline 100 % of control | dose: 400.0 mg/kg/injection, schedule: Q01DX009 (ip), vehicle: saline 97 % of control | dose: 400.0 mg/kg/injection, schedule: Q04DX003 (ip), vehicle: saline 102 % of control

CC(=O)OC1/C=C/C(C)=C/CC(O)/C=C/C(C)=C/C(NC(=O)C(C)=O)C2(C)C(=O)OC(C1)C(C)C2=O (stereo not given)
inactive: dose: 25.0 mg/kg/injection, schedule: Q01DX001 (ip), vehicle: saline with Tween-80 102 % of control | dose: 25.0 mg/kg/injection, schedule: Q01DX009 (ip), vehicle: saline with Tween-80 101 % of control | dose: 50.0 mg/kg/injection, schedule: Q01DX001 (ip), vehicle: saline with Tween-80 94 % of control | dose: 50.0 mg/kg/injection, schedule: Q01DX009 (ip), vehicle: saline with Tween-80 104 % of control | dose: 100.0 mg/kg/injection, schedule: Q01DX001 (ip), vehicle: saline with Tween-80 97 % of control | dose: 100.0 mg/kg/injection, schedule: Q01DX009 (ip), vehicle: saline with Tween-80 103 % of control

CCS(=O)c1ncc2cnccn12 (stereo not given)
inactive: dose: 50.0 mg/kg/injection, schedule: Q01DX009 (ip), vehicle: water 105 % of control | dose: 100.0 mg/kg/injection, schedule: Q01DX009 (ip), vehicle: water 107 % of control | [4] 102 % of control | [5] 100 % of control

OC1(c2ccccc2)c2ccccc2C(O)(c2ccccc2)c2cc(-c3ccccc3)c(-c3ccccc3)cc21 (stereo not given)
inactive: dose: 100.0 mg/kg/injection, schedule: Q04DX002 (ip), vehicle: Klucel (hydroxypropylcellulose) (HPC) 95 % of control | dose: 200.0 mg/kg/injection, schedule: Q04DX002 (ip), vehicle: Klucel (hydroxypropylcellulose) (HPC) 103 % of control | dose: 400.0 mg/kg/injection, schedule: Q04DX002 (ip), vehicle: Klucel (hydroxypropylcellulose) (HPC) 106 % of control

CCCCCC/C=C/C=C/C(C)C
inactive: [6] 95 % of control | dose: 75.0 mg/kg/injection, schedule: Q04DX003 (ip), vehicle: saline 104 % of control | dose: 150.0 mg/kg/injection, schedule: Q01DX001 (ip), vehicle: saline 101 % of control | dose: 150.0 mg/kg/injection, schedule: Q04DX003 (ip), vehicle: saline 102 % of control | dose: 300.0 mg/kg/injection, schedule: Q01DX001 (ip), vehicle: saline 105 % of control | dose: 300.0 mg/kg/injection, schedule: Q04DX003 (ip), vehicle: saline 100 % of control

S=c1cc(S)c(=S)[nH][nH]1
inactive: dose: 5.0 mg/kg/injection, schedule: Q01DX001 (ip), vehicle: other 98 % of control | dose: 10.0 mg/kg/injection, schedule: Q01DX001 (ip), vehicle: other 96 % of control | dose: 20.0 mg/kg/injection, schedule: Q01DX001 (ip), vehicle: other 96 % of control

CC1(Cl)CCC(C(C)(C)Cl)CC1 (stereo not given)
inactive: [2] 101 % of control | dose: 200.0 mg/kg/injection, schedule: Q01DX001 (ip), vehicle: saline 90 % of control | dose: 400.0 mg/kg/injection, schedule: Q01DX001 (ip), vehicle: saline 90 % of control

CCC1(C)CC(=O)N(C/C=C(\C)CCC(=O)O)C(=O)C1
inactive: dose: 100.0 mg/kg/injection, schedule: Q01DX009 (ip), vehicle: other 103 % of control | dose: 100.0 mg/kg/injection, schedule: Q04DX003 (ip), vehicle: other 89 % of control | dose: 200.0 mg/kg/injection, schedule: Q01DX009 (ip), vehicle: other 101 % of control | dose: 200.0 mg/kg/injection, schedule: Q04DX003 (ip), vehicle: other 100 % of control | dose: 400.0 mg/kg/injection, schedule: Q01DX009 (ip), vehicle: other 93 % of control | dose: 400.0 mg/kg/injection, schedule: Q04DX003 (ip), vehicle: other 96 % of control

OCC#CC(O)c1ccccc1 (stereo not given)
inactive: dose: 12.5 mg/kg/injection, schedule: Q01DX001 (ip), vehicle: acetone 94 % of control | dose: 12.5 mg/kg/injection, schedule: Q01DX009 (ip), vehicle: saline 94 % of control | dose: 12.5 mg/kg/injection, schedule: Q04DX003 (ip), vehicle: acetone 97 % of control | dose: 12.5 mg/kg/injection, schedule: Q04DX003 (ip), vehicle: saline 96 % of control | dose: 25.0 mg/kg/injection, schedule: Q01DX001 (ip), vehicle: acetone 97 % of control | dose: 25.0 mg/kg/injection, schedule: Q01DX009 (ip), vehicle: saline 92 % of control | [7] 96 % of control | dose: 50.0 mg/kg/injection, schedule: Q01DX001 (ip), vehicle: acetone 92 % of control | dose: 50.0 mg/kg/injection, schedule: Q01DX009 (ip), vehicle: saline 95 % of control | dose: 50.0 mg/kg/injection, schedule: Q04DX003 (ip), vehicle: acetone 95 % of control | [8] 95 % of control | [1] 98 % of control | dose: 115.0 mg/kg/injection, schedule: Q01DX009 (ip), vehicle: saline 107 % of control

Clc1cccc(C[P+](c2ccccc2)(c2ccccc2)c2ccccc2)c1
inactive: dose: 1.5 mg/kg/injection, schedule: Q01DX009 (ip), vehicle: Klucel (hydroxypropylcellulose) (HPC) 91 % of control | dose: 3.0 mg/kg/injection, schedule: Q01DX009 (ip), vehicle: Klucel (hydroxypropylcellulose) (HPC) 94 % of control | dose: 6.0 mg/kg/injection, schedule: Q01DX009 (ip), vehicle: Klucel (hydroxypropylcellulose) (HPC) 88 % of control | dose: 12.5 mg/kg/injection, schedule: Q04DX003 (ip), vehicle: Klucel (hydroxypropylcellulose) (HPC) 98 % of control | dose: 25.0 mg/kg/injection, schedule: Q04DX003 (ip), vehicle: Klucel (hydroxypropylcellulose) (HPC) 98 % of control

CCCS(=O)[O-].CCCS(=O)[O-].[Zn+2]
inactive: [6] 104 % of control

CC(=O)Nc1cccc2c1Cc1cc([N+](=O)[O-])ccc1-2
inactive: dose: 50.0 mg/kg/injection, schedule: Q04DX003 (ip), vehicle: Klucel (hydroxypropylcellulose) (HPC) 93 % of control | [9] 92 % of control | [10] 93 % of control | [11] 92 % of control | [12] 94 % of control | [13] 87 % of control

CC1Cc2c(n[nH]c2CC2CC(=O)NC(=O)C2)C(C)C1 (stereo not given)
inactive: [9] 100 % of control | [11] 97 % of control | [13] 101 % of control

CCOC(=O)Nc1cc2ccncc2c2sc3ccccc3c12
inactive: [4] 92 % of control | [5] 87 % of control | dose: 400.0 mg/kg/injection, schedule: Q04DX003 (ip), vehicle: water 101 % of control

CC(C)CCC1(c2ccccc2)C(=O)NC(=O)NC1=O
inactive: [2] 92 % of control

COc1cccc(C23CCCCC2=NCC3)c1 (stereo not given)
inactive: [7] 100 % of control | [8] 107 % of control | [3] 89 % of control

O=C1OC(c2ccccc2)CC1N1CCOCC1 (stereo not given)
inactive: dose: 100.0 mg/kg/injection, schedule: Q01DX009 (ip), vehicle: saline sonified 106 % of control | [10] 98 % of control | dose: 200.0 mg/kg/injection, schedule: Q01DX009 (ip), vehicle: saline sonified 99 % of control | [12] 104 % of control | dose: 400.0 mg/kg/injection, schedule: Q01DX009 (ip), vehicle: saline sonified 97 % of control | dose: 400.0 mg/kg/injection, schedule: Q04DX003 (ip), vehicle: Klucel (hydroxypropylcellulose) (HPC) 98 % of control

CC(C)COC(=O)CCCCC(=O)OCC(C)C
inactive: dose: 100.0 mg/kg/injection, schedule: Q04DX003 (ip), vehicle: saline with Tween-80 113 % of control | dose: 200.0 mg/kg/injection, schedule: Q04DX003 (ip), vehicle: saline with Tween-80 107 % of control | dose: 400.0 mg/kg/injection, schedule: Q04DX003 (ip), vehicle: saline with Tween-80 110 % of control
